Measurements: patent US12257243B2, “5-hydroxy-7-oxabicyclo[2.2.1]heptane-2-carboxamide derivatives for inducing chondrogenesis for treating joint damage” (NOVARTIS AG, priority 2018, dated 2025)
Where two headings read alike, the source gives them in different places.

Tested on: ALP in normal human articular chondrocytes (NHACs)
Test: Alkaline Phosphatase (ALP) activity assay (staining and quantitation) in NHACs, prevention of chondrocyte hypertrophy
Type: cell-based
Details: human IL-1 beta 10 ng/mL, 12 days; for IC50: Fast Blue RR staining, high content imaging, read-out: ALP in NHAC IC50; for Emax / ALP in NHAC (% Efficacy): value in parentheses; for Emax: read-out: ALP in NHAC (% Efficacy)
Method in brief: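 Primary human articular chondrocytes plated at 7,500 cells/well in DMEM with 10% FBS alongside test compound, incubated 5 h at 37 °C, then given IL-1β (10 ng/mL final) for 12 days. Fixed cells stained for ALP with Fast Blue RR/naphthol AS-MX, Hoechst counterstain. Read by fluorescence imaging (561 nm) and/or high-content cell scoring.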

SMILES	IC50 (Chondrocyte, 288 h)	Emax (Chondrocyte, 288 h)	IC50	ALP in NHAC (% Efficacy)
COc1cc([C@H]2[C@H]3O[C@H](C[C@@H]3O)[C@@H]2C(=O)Nc2cccc(C(F)(F)F)c2)ccn1 (racemic) [Example 70, rac-(1R,2R,3S,4R,5S)-5-hydroxy-3-(2-methoxypyridin-4-yl)-N-(3-(trifluoromethyl)phenyl)-7-oxabicyclo[2.2.1]heptane-2-carboxamide]	> 30 µM	13%	–	–
Cn1cc([C@H]2[C@H]3O[C@H](C[C@@H]3O)[C@@H]2C(=O)Nc2cc(C(F)(F)F)ccn2)c(C(F)(F)F)n1 (racemic) [Example 38, rac-(1R,2R,3S,4R,5S)-5-hydroxy-3-(1-methyl-3-(trifluoromethyl)-1H-pyrazol-4-yl)-N-(4-(trifluoromethyl)pyridin-2-yl)-7-oxabicyclo[2.2.1]heptane-2-carboxamide]	3.6 µM	94%	–	–
O=C(Nc1ccc(C(F)(F)F)c(Cl)n1)[C@@H]1[C@@H](c2cccc(C(F)(F)F)c2)[C@H]2O[C@@H]1C[C@@H]2O (racemic) [Example 25, rac-(1R,2R,3S,4R,5S)—N-(6-chloro-5-(trifluoromethyl)pyridin-2-yl)-5-hydroxy-3-(3-(trifluoromethyl)phenyl)-7-oxabicyclo[2.2.1]heptane-2-carboxamide]	2.9 µM	112%	–	–
COc1cc([C@H]2[C@H]3O[C@H](C[C@@H]3O)[C@@H]2C(=O)Nc2ccc(C(F)(F)F)c(Cl)c2)ccn1 (racemic) [Example 79, rac-(1R,2R,3S,4R,5S)—N-(3-chloro-4-trifluoromethyl)phenyl)-5-hydroxy-3-(2-methoxypyridin-4-yl)-7-oxabicyclo[2.2.1]heptane-2-carboxamide]	12 µM	75%	–	–
Cc1ccc(NC(=O)[C@@H]2[C@@H](c3cc(C(F)(F)F)nn3C)[C@H]3O[C@@H]2C[C@@H]3O)cc1C(F)(F)F (racemic) [Example 60, rac-(1R,2R,3S,4R,5S)-5-hydroxy-3-(1-methyl-3-(trifluoromethyl)-1H-pyrazol-5-yl)-N-(4-methyl-3-(trifluoromethyl)phenyl)-7-oxabicyclo[2.2.1]heptane-2-carboxamide]	13 µM	81%	–	–
O=C(Nc1cc(C(F)(F)F)cc(Cl)n1)[C@@H]1[C@@H](c2cccc(C(F)(F)F)c2)[C@H]2O[C@@H]1C[C@@H]2O (racemic) [Example 5, rac-(1R,2R,3S,4R,5S)—N-(6-chloro-4-(trifluoromethyl)pyridin-2-yl)-5-hydroxy-3-(3-(trifluoromethyl)phenyl)-7-oxabicyclo[2.2.1]heptane-2-carboxamide]	27 µM	82%	–	–
Cn1cc([C@H]2[C@H]3O[C@H](C[C@@H]3O)[C@@H]2C(=O)Nc2cccc(C(F)(F)F)c2)c(C(F)(F)F)n1 (racemic) [Example 32, rac-(1R,2R,3S,4R,5S)-5-hydroxy-3-(1-methyl-3-(trifluoromethyl)-1H-pyrazol-4-yl)-N-(3-(trifluoromethyl)phenyl)-7-oxabicyclo[2.2.1]heptane-2-carboxamide]	7.2 µM	78%	–	–
Cc1ccc(NC(=O)[C@@H]2[C@@H](c3ccnc(C(F)(F)F)c3)[C@H]3O[C@@H]2C[C@@H]3O)cc1C(F)(F)F (racemic) [Example 64, rac-(1R,2R,3S,4R,5S)-5-hydroxy-N-(4-methy-3-(trifluoromethyl)phenyl-3-(2-(trifluoromethyl)pyridin-4-yl)-7-oxabicyclo[2.2.1]heptane-2-carboxamide]	13 µM	83%	–	–
O=C(Nc1cc(C(F)(F)F)c(Cl)cn1)[C@@H]1[C@@H](c2cccc(C(F)(F)F)c2)[C@H]2O[C@@H]1C[C@@H]2O (racemic) [Example 6, rac-(1R,2R,3S,4R 5S)—N-(5-chloro-4-(trifluoromethyl)pyridin-2-yl)-5-hydroxy-3-(3-(trifluoromethyl)phenyl)-7-oxabicyclo[2.2.1]heptane-2-carboxamide]	> 30 µM	38%	–	–
Cc1cc(C(F)(F)F)cc(NC(=O)[C@@H]2[C@@H](c3cn(C)nc3C(F)(F)F)[C@H]3O[C@@H]2C[C@@H]3O)n1 (racemic) [Example 41, rac-(1R,2R,3S,4R,5S)-5-hydroxy-3-(1-methyl-3-(trifluoromethyl)-1H-pyrazol-4-yl)-N-(6-methyl-4-(trifluoromethyl)pyridin-2-yl)-7-oxabicyclo[2.2.1]heptane-2-carboxamide]	6.3 µM	61%	–	–
COc1ccc(C(F)(F)F)cc1NC(=O)[C@@H]1[C@@H](c2cn(C)nc2C(F)(F)F)[C@H]2O[C@@H]1C[C@@H]2O (racemic) [Example 33, rac-(1R,2R,3S,4R,5)-5-hydroxy-N-(2-methoxy-5-(trifluoromethyl)phenyl)-3-(1-methyl-3-(trifluoromethyl)-1H-pyrazol-4-yl)-7-oxabicyclo[2.2.1]heptane-2-carboxamide]	2.8 µM	74%	–	–
Cn1cc([C@H]2[C@H]3O[C@H](C[C@@H]3O)[C@@H]2C(=O)Nc2cc(C(F)(F)F)cc(C3CC3)n2)c(C(F)(F)F)n1 (racemic) [Example 40, rac-(1R,2R,3S,4R,5S)—N-(6-cyclopropyl-4-(trifluoromethyl)pyridin-2-yl)-5-hydroxy-3-(1-methyl-3-(trifluoromethyl)-1H-pyrazol-4-yl)-7-oxabicyclo[2.2.1]heptane-2-carboxamide]	10 µM	83%	–	–
Cn1cc([C@H]2[C@H]3O[C@H](C[C@@H]3O)[C@@H]2C(=O)Nc2cc(C(F)(F)F)ccc2C#N)c(C(F)(F)F)n1 (racemic) [Example 49, rac-(1R,2R,3S,4R,5S)—N-(2-cyano-5-(trifluoromethyl)phenyl)-5-hydroxy-3-(1-methyl-3-(trifluoromethyl)-1H-pyrazol-4-yl)-7-oxabicyclo[2.2.1]heptane-2-carboxamide]	0.53 µM	96%	–	–
Cc1ccc(C(F)(F)F)cc1NC(=O)[C@@H]1[C@@H](c2cccc(C(F)(F)F)c2)[C@H]2O[C@@H]1C[C@@H]2O (racemic) [Example 14, rac-(1R,2R,3S,4R,5S)-5-hydroxy-N-(2-methyl-5-(trifluoromethyl)phenyl)-3-(3-(trifluoromethyl)phenyl)-7-oxabicyclo[2.2.1]heptane-2-carboxamide]	13 µM	78%	–	–
Cn1cc([C@H]2[C@H]3O[C@H](C[C@@H]3O)[C@@H]2C(=O)Nc2cc(C(F)(F)F)cc(C(F)(F)F)c2)c(C(F)(F)F)n1 (racemic) [Example 50, rac-(1R,2R,3S,4R,5S)—N-(3,5-bis(trifluoromethyl)phenyl)-5-hydroxy-3-(1-methyl-3-(trifluoromethyl)-1H-pyrazol-4-yl)-7-oxabicyclo[2.2.1]heptane-2-carboxamide]	2.3 µM	101%	–	–
O=C(Nc1cccc(C(F)(F)F)c1)[C@@H]1[C@@H](c2ccnc(F)c2)[C@H]2O[C@@H]1C[C@@H]2O (racemic) [Example 80, rac-(1R 2R,3S,4R,5S)-3-(2-fluoropyridin-4-yl)-5-hydroxy-N-(3-(trifluoromethyl)phenyl)-7-oxabicyclo[2.2.1]heptane-2-carboxamide]	23 µM	34%	–	–
Cn1cc([C@H]2[C@H]3O[C@H](C[C@@H]3O)[C@@H]2C(=O)Nc2cc(C(F)(F)F)ccn2)c(C(F)(F)F)n1 (single isomer, unassigned) [Example 38b, (1R,2R,3S,4R,5S)-5-hydroxy-3-(1-methyl-3-(trifluoromethyl)-1H-pyrazol-4-yl)-N-(4-(trifluoromethyl)pyridin-2-yl)-7-oxabicyclo[2.2.1]heptane-2-carboxamide or (1S,2S,3R,4S,5R)-5-hydroxy-3-(1-methyl-3-(trifluoromethyl)-1H-pyrazol-4-yl)-N-(4-(trifluoromethyl)pyridin-2-yl)-7-oxabicyclo[2.2.1]heptane-2-carboxamide]	–	–	> 30 µM	27%
Cn1cc([C@H]2[C@H]3O[C@H](C[C@@H]3O)[C@@H]2C(=O)Nc2cccc(C(F)(F)F)c2F)c(C(F)(F)F)n1 (racemic) [Example 57, rac-(1R,2R,3S,4R,5S)—N-(2-fluoro-3-(trifluoromethyl)phenyl)-5-hydroxy-3-(1-methyl-3-(trifluoromethyl-1H-pyrazol-4-yl)-7-oxabicyclo[2.2.1]heptane-2-carboxamide]	> 30 µM	50%	–	–
N#Cc1ccc(C(F)(F)F)cc1NC(=O)[C@@H]1[C@@H](c2cccc(C(F)(F)F)c2)[C@H]2O[C@@H]1C[C@@H]2O (single isomer, unassigned) [Example 48b, (1R,2R,3S,4R,5S)—N-(2-cyano-5-(trifluoromethyl)phenyl)-5-hydroxy-3-(3-(trifluoromethyl)phenyl)-7-oxabicyclo[2.2.1]heptane-2-carboxamide or (1S,2S,3R,4S,5R)—N-(2-cyano-5-(trifluoromethyl)phenyl)-5-hydroxy-3-(3-(trifluoromethyl)phenyl)-7-oxabicyclo[2.2.1]heptane-2-carboxamide]	–	–	1.9 µM	98%
O=C(Nc1cc(F)cc(C(F)(F)F)c1)[C@@H]1[C@@H](c2cccc(C(F)(F)F)c2)[C@H]2O[C@@H]1C[C@@H]2O (racemic) [Example 17, rac-(1R,2R,3S,4R,5S)—N-(3-fluoro-5-(trifluoromethyl)phenyl)-5-hydroxy-3-(3-(trifluoromethyl)phenyl)-7-oxabicyclo[2.2.1]heptane-2-carboxamide]	13 µM	105%	–	–
